# According to US20190134005A1 (BioMarin Pharmaceutical Inc., priority 2016, published 2019):
# Biological target: T1, human CGT (Homo sapiens, UniProt Q16880)
# T1 sequence (Q16880 21-541): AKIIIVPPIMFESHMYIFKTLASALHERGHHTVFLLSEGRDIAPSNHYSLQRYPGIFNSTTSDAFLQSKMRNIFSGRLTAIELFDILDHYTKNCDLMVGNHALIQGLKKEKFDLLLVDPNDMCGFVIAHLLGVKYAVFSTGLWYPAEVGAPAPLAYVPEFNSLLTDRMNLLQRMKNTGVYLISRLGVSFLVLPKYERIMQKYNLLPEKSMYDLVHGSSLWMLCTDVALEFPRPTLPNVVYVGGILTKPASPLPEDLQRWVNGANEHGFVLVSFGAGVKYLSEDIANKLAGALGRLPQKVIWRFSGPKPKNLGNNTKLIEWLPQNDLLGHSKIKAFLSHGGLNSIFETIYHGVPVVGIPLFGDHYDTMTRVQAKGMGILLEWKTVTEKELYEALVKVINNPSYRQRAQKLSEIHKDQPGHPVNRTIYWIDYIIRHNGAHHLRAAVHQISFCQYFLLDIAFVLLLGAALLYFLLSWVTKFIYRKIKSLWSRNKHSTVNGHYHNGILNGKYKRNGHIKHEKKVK
# Assay: Assay 1: CGT Enzymatic Assay (RapidFire/MS/MS, 0.01% Tween 80)
# Format: biochemical
# Conditions: Table 1, Compounds of Formula (I) and Formula (II); CGT enzymatic assay, C6-NBD-dihydro-galactosylceramide readout; read-out: IC50
row,IC50,Structure (SMILES)
1,< 1000 nM,"N#Cc1cccc(C2(O)N(c3ccc(Cl)cc3)C(=O)N(c3ccc(Cl)cc3)C23CC(F)(F)C3)c1 (stereo not drawn) [Compound 305, 3-(5,7-bis(4-chlorophenyl)-2,2-difluoro-8-hydroxy-6-oxo-5,7-diazaspiro[3.4]octan-8-yl)benzonitrile]"
2,< 1000 nM,"Cc1ccc(N2C(=O)N(c3ccc(C)cc3)C(O)(c3cccc(C(F)F)c3)C23COC3)cc1 (stereo not drawn) [Compound 285, 8-(3-(difluoromethyl)phenyl)-8-hydroxy-5,7-di-p-tolyl-2-oxa-5,7-diazaspiro[3.4]octan-6-one]"
3,< 1000 nM,"O=C1N(c2ccc(Cl)cc2)C2(CCC2)C(O)(c2cccc(OC(F)(F)F)c2)N1c1ccccc1 (stereo not drawn) [Example 332, 5-(4-chlorophenyl)-8-hydroxy-7-phenyl-8-(3-(trifluoromethoxy)phenyl)-5,7-diazaspiro[3.4]octan-6-one]"

# Same assay, conditions: Table 1, Compounds of Formula (I) and Formula (II); CGT enzymatic assay; read-out: IC50
row,IC50,Structure (SMILES)
1,> 50000 nM,"O=C1N(c2ccc(Br)cc2)CC(O)(c2nc3ccccc3s2)N1c1ccc(Br)cc1 (stereo not drawn) [Example 10, 4-(benzo[d]thiazol-2-yl)-1,3-bis(4-bromophenyl)-4-hydroxyimidazolidin-2-one]"
2,< 1000 nM,"O=C1N(c2ccc(Br)cc2)CC(O)(c2cccc(C(F)(F)F)c2)N1c1ccc(Br)cc1 (stereo not drawn) [Example 31, 1,3-bis(4-bromophenyl)-4-hydroxy-4-(3-(trifluoromethyl)phenyl)imidazolidin-2-one]"
3,1000 to 10000 nM,"O=C1N(c2ccc(Cl)cc2)C(c2cccs2)C(O)(c2ccccc2)N1c1ccc(Cl)cc1 (stereo not drawn) [Compound 109, 1,3-bis(4-chlorophenyl)-4-hydroxy-4-phenyl-5-(thiophen-2-yl)imidazolidin-2-one]"
4,< 1000 nM,"CCC1(C)N(c2ccc(Cl)cc2)C(=O)N(c2ccc(Cl)cc2)C1(O)c1cccc(OC(F)(F)F)c1 (stereo not drawn) [Example 163, 1,3-bis(4-chlorophenyl)-4-ethyl-5-hydroxy-4-methyl-5-(3-(trifluoromethoxy)phenyl)imidazolidin-2-one]"
5,1000 to 10000 nM,"CCCc1c(-c2cccc(C(F)(F)F)c2)n(-c2ccc(Cl)cc2)c(=O)n1-c1ccc(Cl)cc1 [Compound 243, 1,3-bis(4-chlorophenyl)-4-propyl-5-(3-(trifluoromethyl)phenyl)-1,3-dihydro-2H-imidazol-2-one]"
6,10000 to 50000 nM,O=c1n(-c2ccc(Br)cc2)c2c(n1-c1ccc(Br)cc1)CCCC2 [Example 18]
7,> 50000 nM,"O=C1N(c2ccc(Br)cc2)C(=O)C(O)(c2ccc(OC3CCCCC3)cc2)N1c1ccc(Br)cc1 (stereo not drawn) [Example 169, 1,3-bis(4-bromophenyl)-5-(4-(cyclohexyloxy)phenyl)-5-hydroxyimidazolidine-2,4-dione]"
8,< 1000 nM,"COC[C@H]1N(c2ccc(Cl)cc2)C(=O)N(c2ccc(Cl)cc2)C1(O)c1cccc(C(F)(F)F)c1 (stereo partly drawn) [Compound 92-2, (5R)-1,3-bis(4-chlorophenyl)-4-hydroxy-5-(methoxymethyl)-4-(3-(trifluoromethyl)phenyl)imidazolidin-2-one]"
9,1000 to 10000 nM,"C[C@H]1N(c2ccc(Cl)cc2)C(=O)N(c2ccc(Cl)cc2)C1(O)c1cccc(C(C)(C)O)c1 (stereo partly drawn) [Compound 140-2, (5R)-1,3-bis(4-chlorophenyl)-4-hydroxy-4-(3-(2-hydroxypropan-2-yl)phenyl)-5-methylimidazolidin-2-one]"
10,< 1000 nM,"CCc1c(-c2cccc(C#N)c2)n(-c2ccc(Cl)cc2)c(=O)n1-c1ccc(Cl)cc1 [Compound 258, 3-(1,3-bis(4-chlorophenyl)-5-ethyl-2-oxo-2,3-dihydro-1H-imidazol-4-yl)benzonitrile]"
11,< 1000 nM,"O=C1N(c2ccc(Cl)cc2)C(C2CCC2)C(O)(c2cccc(OC(F)(F)F)c2)N1c1ccc(Cl)cc1 (stereo not drawn) [Example 191, 1,3-bis(4-chlorophenyl)-5-cyclobutyl-4-hydroxy-4-(3-(trifluoromethoxy)phenyl)imidazolidin-2-one]"

# Biological target: T1, human CGT
# Assay: CGT Enzyme Assay (Biological Example 2, RapidFire/MS/MS method with 0.01% Tween 80 added)
# Format: biochemical
# Conditions: enzymatic assay, CHO/CGT lysate
# Experimental: Full-length human CGT cDNA was cloned into the BamH1/Xho1 site of pcDNA3.1 (+) mammalian expression vector (V90-20, Invitrogen, Carlsbad, Calif.) and the plasmid was transfected into Chinese hamster ovary (CHO) cells. Lysate was prepared using M-PER (Mammalian Protein Extraction Reagent, ThermoFisher Scientific, Grand Island, N.Y.) in the presence of a protease inhibitor cocktail (P8340, Sigma, Saint Louis, Mo.). Each 100 mm dish (100% confluent, approximately 1×10^7 cells) was lysed with 250 μL of M-PER containing protease inhibitors. Protein concentration was determined using a Pierce BCA protein assay kit (ThermoFisher Scientific). […] The final concentration of DMSO was 0.5% in both compound-treated and mock-treated samples. Each individual reaction was diluted with 80 μL of methanol:acetronitrile (1:3) containing 5 μM N-docdecanoyl-NBD-galactosylceramide (internal standard) to stop the reaction. 200 μL H2O:acetonitile (1:1) was added to precipitate the protein. After sufficient mixing, the plates were centrifuged at 2469 g for 38 minutes, 200 μl of supernatant was transferred to a LC-MS 96-deep well plate and a second spin was performed at 2469 g for 10 minutes. The final supernatant was injected in triplicate for RapidFire/MS/MS analysis.
# The quantitative analysis of C6-NBD-dihydro-ceramide and C6-NBD-dihydro-galactosylceramide was performed on a Rapid Fire 360 high-throughput mass spectrometry system (Agilent Technologies, Palo Alto, Calif.) coupled with a API4000^+ triple quadrupole mass spectrometer (Applied Biosystems, Concord, Ontario, Canada). RapidFire software packages, including RapidFire Control panel, RapidFire UI and RapidFire Integrator (Agilent Technologies), were used to control the RapidFire instrument and to process data. Analyst 1.6.2 software packages (Applied Biosystems) were used to control the MS system and acquire MS data. 10 μL of sample was loaded on a micro-scale C4 solid-phase extraction (SPE) cartridge (Agilent Technologies) and salts were removed using water supplemented with 0.1% formic acid at the flow rate of 1.5 mL/min for 3 sec. C6-NBD-dihydro-ceramide and C6-NBD-dihydro-galactosylceramide were co-eluted into the mass spectrometer using acetonitrile containing 0.1% formic acid at the flow rate of 1.0 mL/min for 3 sec. The total cycle time of one injection was 8 secs. The MS/MS detection was performed in ESI negative mode.
# The C6-NBD-dihydro-galactosylceramide reading was normalized first by dividing the peak area of C6-NBD-dihydro-galactosylceramide by the peak area of the internal standard, N-docdecanoyl-NBD-galactosylceramide.
row,IC50,Structure (SMILES)
1,10000 to 30000 nM,"CCC[C@@]1(C)[C@@H](c2cccc(OC(F)(F)F)c2)N(c2ccc(C#N)cc2)C(=O)N1c1ccc(C#N)cc1 [Example 52-6, 4,4′-((4S,5R)-4-methyl-2-oxo-4-propyl-5-(3-(trifluoromethoxy)phenyl)imidazolidine-1,3-diyl)dibenzonitrile]"
2,< 1000 nM,"Cc1ccc(N2C(=O)N(c3ccc(Cl)cc3)[C@@H](c3cccc(OC(F)(F)F)c3)C2(C)C)cc1 [Example 56-2, (S)-1-(4-chlorophenyl)-4,4-dimethyl-3-(p-tolyl)-5-(3-(trifluoromethoxy)phenyl)imidazolidin-2-one]"
3,10000 to 30000 nM,"C[C@H]1[C@H](c2cccc(C#N)c2)N(c2ccc(Cl)cc2)C(=O)N1c1ccc(Cl)cc1 [Example 5-2, 3-((4S,5S)-1,3-bis(4-chlorophenyl)-5-methyl-2-oxoimidazolidin-4-yl)benzonitrile]"
4,< 1000 nM,"CC1(C)[C@H](c2cccc(OC(F)F)c2)N(c2ccc(Cl)cc2)C(=O)N1c1ccc(Cl)cc1 [Example 9-2, (S)-1,3-bis(4-chlorophenyl)-5-(3-(difluoromethoxy)phenyl)-4,4-dimethylimidazolidin-2-one]"
5,< 1000 nM,"Cc1ccc(N2C(=O)N(c3ccc(C#N)cc3)[C@@H](c3cccc(C#N)c3)C2(C)C)cc1 [Example 48-2, (S)-3-(3-(4-cyanophenyl)-5,5-dimethyl-2-oxo-1-(p-tolyl)imidazolidin-4-yl)benzonitrile]"
6,< 1000 nM,"C[C@]1(C(F)(F)F)[C@@H](c2cccc(C#N)c2)N(c2ccc(Cl)cc2)C(=O)N1c1ccc(Cl)cc1 [Example 27-2, 3-((4R,5R)-1,3-bis(4-chlorophenyl)-5-methyl-2-oxo-5-(trifluoromethyl)imidazolidin-4-yl)benzonitrile]"
7,10000 to 30000 nM,"O=C1N(c2ccc(Cl)cc2)[C@@H]2CCC[C@]2(c2cccc(OC(F)(F)F)c2)N1c1ccc(Cl)cc1 [Example 12-2, (3aR,6aR)-1,3-bis(4-chlorophenyl)-3a-(3-(trifluoromethoxy)phenyl)hexahydrocyclopenta[d]imidazol-2(1H)-one]"
8,10000 to 30000 nM,"CC1(C)[C@@H](c2cccc(OC(F)(F)F)c2)N(c2ccc(Cl)cc2)C(=O)N1c1ccc(C#N)cc1 [Example 41-1, (R)-4-(3-(4-chlorophenyl)-5,5-dimethyl-2-oxo-4-(3-(trifluoromethoxy)phenyl)imidazolidin-1-yl)benzonitrile]"
9,< 1000 nM,"Cc1ccc(N2C(=O)N(c3ccc(C#N)cc3)[C@H](c3cccc(OC(F)(F)F)c3)C2(C)C)cc1 [Example 50-1, (R)-4-(4,4-dimethyl-2-oxo-3-(p-tolyl)-5-(3-(trifluoromethoxy)phenyl)imidazolidin-1-yl)benzonitrile]"
10,10000 to 30000 nM,"Cc1ccc(N2C(=O)N(c3ccc(C#N)cc3)C(C)(C)[C@H]2c2cccc(C#N)c2)cc1 [Example 54-1, (R)-3-(1-(4-cyanophenyl)-5,5-dimethyl-2-oxo-3-(p-tolyl)imidazolidin-4-yl)benzonitrile]"
11,< 1000 nM,CC1(C)C(c2cccc(OC(F)F)c2)N(c2ccc(Cl)cc2)C(=O)N1c1ccc(Cl)cc1 (stereo not drawn) [Example 9]
12,< 1000 nM,"C[C@@]1(C(F)(F)F)[C@H](c2cccc(OC(F)(F)F)c2)N(c2ccc(C#N)cc2)C(=O)N1c1ccc(C#N)cc1 [Example 39-1, 4,4′-((4S,5S)-4-methyl-2-oxo-5-(3-(trifluoromethoxy)phenyl)-4-(trifluoromethyl)imidazolidine-1,3-diyl)dibenzonitrile]"
13,1000 to 10000 nM,"Cc1ccc(N2C(=O)N(c3ccc(C)cc3)C3(CCCC3)[C@H]2c2cccc(OC(F)(F)F)c2)cc1 [Example 35-1, (R)-1,3-di-p-tolyl-4-(3-(trifluoromethoxy)phenyl)-1,3-diazaspiro[4.4]nonan-2-one]"
